Source: patent publication US20100040565A1, “ACTIVE DELIVERY SYSTEMS FORMULATIONS” (Castle Beach, LLC, priority 2008, published 2010)

Columns and labels:
[1] = assay type: physicochemical
Description: DEET is incorporated into the pores, if any present, and onto the surfaces of a carrier. The evaporation rate of DEET from a thin film was then measured by weight. The film was smeared onto a glass slide and its weight was measured as a function of time. The initial weight of the film was 0.0231 grams and the area that was covered was […] (thickness ca 10 microns). The weight of the film leveled off at 0.019 grams when the DEET was fully evaporated, approximately 36 hours after application. Half of the DEET, about 2 milligrams on 3 square inches, remained 16 hours after application.

[2] = Behaviour of the permethrin-on-carrier formulation on substrates (activity duration, spreading, adherence); conditions: permethrin trapped in porous carrier (Silcron G100) in barrier/transfer agent composition

Compound	Amount of DEET remaining ([1]; 16 h)	Time after application at which half of the DEET remained ([1]; thin film ca 10 microns on glass slide) [h]	Time until DEET was fully evaporated from the film ([1]; thin film ca 10 microns smeared on glass slide, initial film weight 0.0231 grams, time after application)	Weight at which the film leveled off ([1]; when the DEET was fully evaporated, initial film weight 0.0231 grams) [grams]	Activity duration of permethrin in the formulation [2]
CCN(CC)C(=O)c1cccc(C)c1 [DEET]	about 2 milligrams	16	approximately 36 hours	0.019	–
CC1(C)C(C=C(Cl)Cl)C1C(=O)OCc1cccc(Oc2ccccc2)c1 (centres unmarked) [permethrin]	–	–	–	–	significantly prolonged
